Test results: ChEMBL document CHEMBL1126408, “CP-70,030 and CP-75,998: The first non-peptide antagonists of bombesin and gastrin releasing peptide” (Bioorg Med Chem Lett, 1992)
Active and inactive are the calls of the source. The rule behind the calls is not given here.

Legend:
Rattus norvegicus [1] = organism: Rattus norvegicus; experiment: Agonistic activity up to a conc 30 uM measured as elevation of inositol phosphate production in absence of bombesin in rat pituitary GH3 cells; NA is no measurable agonist activity; type: functional, cell-based
[2] = target: Gastrin-releasing peptide receptor (Homo sapiens) (UniProt P30550); experiment: Compound up to a conc of 32 uM was tested for displacement of radiolabeled GRP from its receptors on bombesin-responsive human SCLC cell line N592; […]
Rattus norvegicus [3] = organism: Rattus norvegicus; experiment: Antagonistic activity as a measure of bombesin-induced phosphoinositide turnover in rat pituitary GH3 cells; 1.5-3 uM; type: functional, cell-based
[4] = target: Gastrin-releasing peptide receptor (Rattus norvegicus, UniProt P52500); experiment: Compound was evaluated for displacement of radiolabeled [I-125]GRP from rat brain receptor; 1.5-3 uM
Chain of Gastrin-releasing peptide receptor (P52500 whole entry): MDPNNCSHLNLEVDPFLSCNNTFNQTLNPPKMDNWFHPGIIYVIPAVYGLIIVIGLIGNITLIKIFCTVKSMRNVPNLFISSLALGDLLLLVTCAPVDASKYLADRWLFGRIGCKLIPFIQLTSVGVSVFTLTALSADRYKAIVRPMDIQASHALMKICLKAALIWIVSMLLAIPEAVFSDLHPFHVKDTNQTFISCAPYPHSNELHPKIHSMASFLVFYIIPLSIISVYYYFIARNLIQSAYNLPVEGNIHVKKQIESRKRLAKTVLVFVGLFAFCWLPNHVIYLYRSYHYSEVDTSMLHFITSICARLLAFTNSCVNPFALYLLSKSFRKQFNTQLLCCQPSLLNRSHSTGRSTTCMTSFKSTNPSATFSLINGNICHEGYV

Chain of Gastrin-releasing peptide receptor (Homo sapiens) (P30550 whole entry, looked up): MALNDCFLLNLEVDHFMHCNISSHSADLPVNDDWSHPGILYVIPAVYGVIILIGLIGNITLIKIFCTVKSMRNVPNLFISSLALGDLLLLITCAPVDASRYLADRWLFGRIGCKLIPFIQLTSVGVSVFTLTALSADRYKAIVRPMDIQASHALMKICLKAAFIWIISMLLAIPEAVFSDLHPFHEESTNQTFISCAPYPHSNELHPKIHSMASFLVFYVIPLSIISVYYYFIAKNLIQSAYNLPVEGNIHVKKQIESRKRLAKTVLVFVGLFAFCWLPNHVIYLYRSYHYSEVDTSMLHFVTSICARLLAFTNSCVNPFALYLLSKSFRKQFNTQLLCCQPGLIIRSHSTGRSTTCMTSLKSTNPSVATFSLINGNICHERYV

Activity [2]	IC50 (Rattus norvegicus [3]) [nM]	IC50 [4] [nM]	Structure (SMILES)	Activity (Rattus norvegicus [1])
inactive	1500	1500	O=C1NC(=O)C2(N1)C(=O)N(Cc1ccc(Cl)c(Cl)c1)c1ncc(Br)cc12 (stereo not drawn)	inactive
inactive	1500	1500	CCN1C(=O)/C(=C/c2cc(C(C)(C)C)c(O)c(C(C)(C)C)c2)c2cc(OCc3ccccc3C(=O)O)ccc21	inactive
